{"source": "patent US8192962B2", "about": "“Processes for detecting toxic substances” (Daikin Industries, Ltd., priority 2001, dated 2012)", "tested_on": "Genes belonging to other category", "assay": "DNA chip mRNA expression in yeast, genes belonging to other category (Table 9)", "type": "cell-based, Saccharomyces cerevisiae S288C", "summary_of_the_method": "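Chemical exposure: 2 h, log-phase S. cerevisiae S288C, YPD, 25° C., dose set to inhibit growth without death. Profiling: mRNA labeled by reverse transcription with Cy3- or Cy5-dUTP, hybridized to whole-genome array. Output: fluorescence ratio against untreated culture.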"}
{"smiles": "CCCCC[C@H](O)CC(=O)CCc1ccc(O)c(OC)c1", "note": "[(13), gingerol]", "values": [{"measurement": "The level of expressed mRNA in the presence of chemical substance/The level of expressed mRNA in the absence of chemical substance", "setting": "yeast gene YAL007C", "result": 2.0}, {"measurement": "The level of expressed mRNA in the presence of chemical substance/The level of expressed mRNA in the absence of chemical substance", "setting": "yeast gene YBL005W-A", "result": 2.9}, {"measurement": "The level of expressed mRNA in the presence of chemical substance/The level of expressed mRNA in the absence of chemical substance", "setting": "yeast gene YBL041W", "result": 2.6}, {"measurement": "The level of expressed mRNA in the presence of chemical substance/The level of expressed mRNA in the absence of chemical substance", "setting": "yeast gene YBL043W", "result": 1.8}, {"measurement": "The level of expressed mRNA in the presence of chemical substance/The level of expressed mRNA in the absence of chemical substance", "setting": "yeast gene YBR109C", "result": 2.0}, {"measurement": "The level of expressed mRNA in the presence of chemical substance/The level of expressed mRNA in the absence of chemical substance", "setting": "yeast gene YBR201W", "result": 1.9}, {"measurement": "The level of expressed mRNA in the presence of chemical substance/The level of expressed mRNA in the absence of chemical substance", "setting": "yeast gene YCL020W", "result": 3.0}, {"measurement": "The level of expressed mRNA in the presence of chemical substance/The level of expressed mRNA in the absence of chemical substance", "setting": "yeast gene YCL027W", "result": 1.1}, {"measurement": "The level of expressed mRNA in the presence of chemical substance/The level of expressed mRNA in the absence of chemical substance", "setting": "yeast gene YCR004C", "result": 1.3}, {"measurement": "The level of expressed mRNA in the presence of chemical substance/The level of expressed mRNA in the absence of chemical substance", "setting": "yeast gene YCR071C", "result": 1.3}, {"measurement": "The level of expressed mRNA in the presence of chemical substance/The level of expressed mRNA in the absence of chemical substance", "setting": "yeast gene YCR088W", "result": 1.9}, {"measurement": "The level of expressed mRNA in the presence of chemical substance/The level of expressed mRNA in the absence of chemical substance", "setting": "yeast gene YDL008W", "result": 2.0}, {"measurement": "The level of expressed mRNA in the presence of chemical substance/The level of expressed mRNA in the absence of chemical substance", "setting": "yeast gene YDL097C", "result": 4.0}, {"measurement": "The level of expressed mRNA in the presence of chemical substance/The level of expressed mRNA in the absence of chemical substance", "setting": "yeast gene YDL126C", "result": 4.3}, {"measurement": "The level of expressed mRNA in the presence of chemical substance/The level of expressed mRNA in the absence of chemical substance", "setting": "yeast gene YDL212W", "result": 0.5}, {"measurement": "The level of expressed mRNA in the presence of chemical substance/The level of expressed mRNA in the absence of chemical substance", "setting": "yeast gene YDL238C", "result": 2.0}, {"measurement": "The level of expressed mRNA in the presence of chemical substance/The level of expressed mRNA in the absence of chemical substance", "setting": "yeast gene YDR055W", "result": 3.1}, {"measurement": "The level of expressed mRNA in the presence of chemical substance/The level of expressed mRNA in the absence of chemical substance", "setting": "yeast gene YDR084C", "result": 1.0}, {"measurement": "The level of expressed mRNA in the presence of chemical substance/The level of expressed mRNA in the absence of chemical substance", "setting": "yeast gene YDR085C", "result": 1.1}, {"measurement": "The level of expressed mRNA in the presence of chemical substance/The level of expressed mRNA in the absence of chemical substance", "setting": "yeast gene YDR104C", "result": 1.6}, {"measurement": "The level of expressed mRNA in the presence of chemical substance/The level of expressed mRNA in the absence of chemical substance", "setting": "yeast gene YDR115W", "result": 1.1}, {"measurement": "The level of expressed mRNA in the presence of chemical substance/The level of expressed mRNA in the absence of chemical substance", "setting": "yeast gene YDR315C", "result": 1.6}, {"measurement": "The level of expressed mRNA in the presence of chemical substance/The level of expressed mRNA in the absence of chemical substance", "setting": "yeast gene YDR358W", "result": 3.2}, {"measurement": "The level of expressed mRNA in the presence of chemical substance/The level of expressed mRNA in the absence of chemical substance", "setting": "yeast gene YDR388W", "result": 1.7}, {"measurement": "The level of expressed mRNA in the presence of chemical substance/The level of expressed mRNA in the absence of chemical substance", "setting": "yeast gene YDR481C", "result": 1.5}, {"measurement": "The level of expressed mRNA in the presence of chemical substance/The level of expressed mRNA in the absence of chemical substance", "setting": "yeast gene YDR518W", "result": 1.8}, {"measurement": "The level of expressed mRNA in the presence of chemical substance/The level of expressed mRNA in the absence of chemical substance", "setting": "yeast gene YEL042W", "result": 0.4}, {"measurement": "The level of expressed mRNA in the presence of chemical substance/The level of expressed mRNA in the absence of chemical substance", "setting": "yeast gene YEL066W", "result": 1.6}, {"measurement": "The level of expressed mRNA in the presence of chemical substance/The level of expressed mRNA in the absence of chemical substance", "setting": "yeast gene YER012W", "result": 2.9}, {"measurement": "The level of expressed mRNA in the presence of chemical substance/The level of expressed mRNA in the absence of chemical substance", "setting": "yeast gene YER130C", "result": 1.6}, {"measurement": "The level of expressed mRNA in the presence of chemical substance/The level of expressed mRNA in the absence of chemical substance", "setting": "yeast gene YER136W", "result": 1.3}, {"measurement": "The level of expressed mRNA in the presence of chemical substance/The level of expressed mRNA in the absence of chemical substance", "setting": "yeast gene YFL022C", "result": 0.6}, {"measurement": "The level of expressed mRNA in the presence of chemical substance/The level of expressed mRNA in the absence of chemical substance", "setting": "yeast gene YFL043C", "result": 1.5}, {"measurement": "The level of expressed mRNA in the presence of chemical substance/The level of expressed mRNA in the absence of chemical substance", "setting": "yeast gene YGL158W", "result": 1.0}, {"measurement": "The level of expressed mRNA in the presence of chemical substance/The level of expressed mRNA in the absence of chemical substance", "setting": "yeast gene YGL229C", "result": 1.7}, {"measurement": "The level of expressed mRNA in the presence of chemical substance/The level of expressed mRNA in the absence of chemical substance", "setting": "yeast gene YGR136W", "result": 1.7}, {"measurement": "The level of expressed mRNA in the presence of chemical substance/The level of expressed mRNA in the absence of chemical substance", "setting": "yeast gene YGR189C", "result": 1.2}, {"measurement": "The level of expressed mRNA in the presence of chemical substance/The level of expressed mRNA in the absence of chemical substance", "setting": "yeast gene YGR257C", "result": 2.0}, {"measurement": "The level of expressed mRNA in the presence of chemical substance/The level of expressed mRNA in the absence of chemical substance", "setting": "yeast gene YHR004C", "result": 1.1}, {"measurement": "The level of expressed mRNA in the presence of chemical substance/The level of expressed mRNA in the absence of chemical substance", "setting": "yeast gene YHR071W", "result": 2.3}, {"measurement": "The level of expressed mRNA in the presence of chemical substance/The level of expressed mRNA in the absence of chemical substance", "setting": "yeast gene YHR142W", "result": 1.2}, {"measurement": "The level of expressed mRNA in the presence of chemical substance/The level of expressed mRNA in the absence of chemical substance", "setting": "yeast gene YIL123W", "result": 0.4}, {"measurement": "The level of expressed mRNA in the presence of chemical substance/The level of expressed mRNA in the absence of chemical substance", "setting": "yeast gene YJL073W", "result": 1.6}, {"measurement": "The level of expressed mRNA in the presence of chemical substance/The level of expressed mRNA in the absence of chemical substance", "setting": "yeast gene YJL089W", "result": 1.8}, {"measurement": "The level of expressed mRNA in the presence of chemical substance/The level of expressed mRNA in the absence of chemical substance", "setting": "yeast gene YJR099W", "result": 1.5}, {"measurement": "The level of expressed mRNA in the presence of chemical substance/The level of expressed mRNA in the absence of chemical substance", "setting": "yeast gene YJR122W", "result": 1.3}, {"measurement": "The level of expressed mRNA in the presence of chemical substance/The level of expressed mRNA in the absence of chemical substance", "setting": "yeast gene YJR125C", "result": 1.5}, {"measurement": "The level of expressed mRNA in the presence of chemical substance/The level of expressed mRNA in the absence of chemical substance", "setting": "yeast gene YKL008C", "result": 1.7}, {"measurement": "The level of expressed mRNA in the presence of chemical substance/The level of expressed mRNA in the absence of chemical substance", "setting": "yeast gene YKL013C", "result": 1.3}, {"measurement": "The level of expressed mRNA in the presence of chemical substance/The level of expressed mRNA in the absence of chemical substance", "setting": "yeast gene YKL039W", "result": 1.9}]}
